[invAb] = inverted abasic unit; m = 2'-O-methyl; r = 2'-OH (RNA); f = 2'-fluoro

The series concerns STAT1 mRNA. Briefly: Stat1 mRNA knockdown and EC50 in human bronchial epithelial cells (NHBE). The conditions noted are these: 48 hours post transfection, mean of 3 donors; for EC50: Stat1 mRNA knockdown; for Maximum mRNA Knockdown: Stat1 mRNA. The series is classed as cell-based. The protocol:
Human Bronchial Epithelial cells (NHBE cells) obtained from Lonza (Cat. No. CC-2540) were grown at 37 degrees in the presence of 5% CO2 and cultured in BEBM basal medium (Lonza, Cat. No. CC-3171) on Biocoat Collagen1 coated flasks (Becton Dickinson).
Cells were plated in collagen 1 coated plates and cultured in appropriate culture media. The cells were cultured for 24 hours after plating at 37 deg in the presence of 5% CO2. siNAs were diluted in OptiMEM 1 to 1 uM and the transfection agent to 25 ug/ml. For formulation of the siNAs equal volumes of the diluted siNA and delivery lipid were combined and incubated for 20 minutes at room temperature. Cells were meanwhile trypsinised and resuspended in antibiotic free BEBM media at 150,000 cells/ml. 20 ul of the formulated siNA and 80 ul of BEBM media was added per well of a 96 well plate (6 replicates/data point/siNA concentration) so as to give a nine point dose range of the siNAs (100 nM, 30 nM, 10 nM, 3 nM, 1 nM, 0.3 nM, 0.1 nM, 0.03 nM, 0.01 nM). The time of incubation with the transfection agent-siNA complexes were 48 hours with one change of media at 24 hours.
Total RNA was isolated from the cells in the 96-well plate format using the Automated SV96 Total RNA Isolation System (Promega) according to the manufacturer's instructions. The Biomek 2000 Laboratory Automation Workstation (Beckman Coulter) was used to apply the transfected cell lysates to a silica membrane. RNase-Free DNase I was then applied directly to the silica membrane to digest contaminating genomic DNA. The bound total RNA was further purified from contaminating salts, proteins and cellular impurities by simple washing steps. Finally, total RNA was eluted from the membrane by the addition of Nuclease-Free Water.
A series of probes and primers were used for the detection of mRNA transcripts of STAT1, OAS1, and GAPDH (as control/normalisation) in the human cell lines. The assays were performed on an ABI 7900HT instrument according to the manufacturer's instructions.
With TaqMan data, critical threshold values (Ct) were converted to copy numbers corresponding to the particular gene analysed in each well of the 384 well plate. Six identical wells were prepared in each plate for a given treatment. […] Determination of the percentage coefficient of variation (CV) (% C.V.=[standard deviation/average]*100) allowed the omitting of wells whose value was an outlier (so that % C.V.<25). Relative abundance (aka relative expression) of a gene was determined by dividing the mean copy number of that gene with its GAPDH counterpart in that particular sample.
EC50 values were calculated from the data using sigma plot. All calculations of the efficacy and potency of the siNAs were done relative to the non-targeting control siNA.

Turning to “25368-DC: STAT1 siNA duplex, human target site 782; modified strands SEQ ID NO: 73 and 74 (chain 1 GUAAAGUCAGAAAUGUGAATT; chain 2 UUCACAUUUCUGACUUUACUU; chain 1: DNA at AGT, 2'-fluoro at CU, [invAb] at 5' end, 3' end, backbone not given here; chain 2: sugars from the 5' end rrrmfmfffffmmffffmfmm, backbone not given here)”, a half-maximal response (EC50) required 0.06 nM and the “Maximum mRNA Knockdown” value amounted to 93%.
For the substance “25372-DC: STAT1 siNA duplex, human target site 968; modified strands SEQ ID NO: 81 and 82 (chain 1 UUGACAAUAAGAGAAAGGATT; chain 2 UCCUUUCUCUUAUUGUCAAUU; chain 1: DNA at AGT, 2'-fluoro at CU, [invAb] at 5' end, 3' end, backbone not given here; chain 2: sugars from the 5' end rrrffffffffmffmffmmmm, backbone not given here)”, the EC50 (commonly the concentration needed to bring the measured effect to its halfway point) is 0.5 nM and the “Maximum mRNA Knockdown” value worked out at 96%.

The values are drawn from US20120022142A1, “RNA Interference Mediated Inhibition of Signal Transducer and Activator of Transcription 1 (STAT1) Gene Expression Using Short Interfering Nucleic Acid (siNA)” (Merck Sharp & Dohme Corp., priority 2009, published 2012).
